This is an account of results in US20170114021A1, “HALOGEN-SUBSTITUTED COMPOUNDS” (priority 2014, published 2017).

Data set [1] has as its system Ctenocephalides felis. In words: Ctenocephalides felis in vitro contact test. The settings on record: application rate 5 μg/cm^2; adult cat fleas; after 48 h. The data set is classed as in vivo. Here is the method:
Ctenocephalides felis—In Vitro Contact Test
(§1) For the coating of the test tubes, 9 mg of active compound are first dissolved in 1 ml of acetone p.a. and then diluted to the desired concentration with acetone p.a. 250 μl of the solution are distributed homogeneously on the inner walls and the base of a 25 ml test tube by turning and rocking on an orbital shaker (rocking rotation at 30 rpm for 2 h). With 900 ppm active compound solution and internal surface 44.7 cm^2, given homogeneous distribution, an area-based dose of 5 μg/cm^2 is achieved.
After the solvent has evaporated off, the tubes are populated with 5-10 adult cat fleas (Ctenocephalides felis), sealed with a perforated plastic lid and incubated in a horizontal position at room temperature and ambient humidity. After 48 h, efficacy is determined. To this end, the test tubes are stood upright and the fleas are knocked to the base of the tube. Fleas which remain motionless at the base or move in an uncoordinated manner are considered to be dead or moribund.
100% efficacy means that all the fleas were dead or moribund. 0% efficacy means that no fleas were harmed.

A further data set relates to Phaedon cochleariae. In words: Phaedon cochleariae spray test (PHAECO). The data set is classed as in vivo. The settings on record: application rate 100 g/ha; Chinese cabbage leaf discs; after 7 days. The protocol: Phaedon cochleariae—Spray Test (PHAECO) Solvent: 78.0 parts by weight of acetone • • 1.5 parts by weight of dimethylformamide Emulsifier: alkylaryl polyglycol ether
(§2) To produce a suitable preparation of active compound, 1 part by weight of active compound is dissolved using the specified parts by weight of solvent and made up with water containing an emulsifier concentration of 1000 ppm until the desired concentration is attained. To produce further test concentrations, the preparation is diluted with emulsifier-containing water.
After 7 days, efficacy in % is determined. 100% means that all the beetle larvae have been killed; 0% means that no beetle larvae have been killed.

The next data set relates to Rhipicephalus sanguineus. The data set is described as follows: Rhipicephalus sanguineus in vitro contact test. The data set is classed as in vivo. Conditions: application rate 5 μg/cm^2; adult dog ticks; after 48 h. Here is the method: Rhipicephalus sanguineus—In Vitro Contact Tests
as §1
After the solvent has evaporated off, the tubes are populated with 5-10 adult dog ticks (Rhipicephalus sanguineus), sealed with a perforated plastic lid and incubated in a horizontal position in the dark at room temperature and ambient humidity. After 48 h, efficacy is determined. To this end, the ticks are knocked to the floor of the tube and incubated on a hotplate at 45-50° C. for not more than 5 min. Ticks which remain motionless on the floor or move in such an uncoordinated manner that they are unable to deliberately avoid the heat by climbing upwards are considered to be dead or moribund.
An efficacy of 100% means that all the ticks were dead or moribund. 0% efficacy means that none of the ticks had been harmed.

The next data set has as its system Lucilia cuprina. The data set is described as follows: Lucilia cuprina test (LUCICU). The data set is classed as in vivo. The settings on record: application rate 100 ppm; L1 larvae; after 2 days. Here is the method:
Lucilia cuprina-Test (LUCICU) Solvent: dimethyl sulphoxide
(§3) To produce a suitable preparation of active compound, 10 mg of active compound are mixed with 0.5 ml of dimethyl sulphoxide, and the concentrate is diluted with water to the desired concentration.
About 20 L1 larvae of the Australian sheep blowfly (Lucilia cuprina) are transferred into a test vessel containing minced horsemeat and the active compound preparation of the desired concentration.
After 2 days, the kill in % is determined. 100% means that all the larvae have been killed; 0% means that no larvae have been killed.

A further data set relates to Tetranychus urticae. The data set is described as follows: Tetranychus urticae spray test, OP-resistant (TETRUR). In kind it is in vivo. Conditions: application rate 100 g/ha; bean leaf discs; after 6 days. Here is the method: Tetranychus urticae—Spray Test, OP-Resistant (TETRUR) Solvent: 78.0 parts by weight of acetone • • 1.5 parts by weight of dimethylformamide Emulsifier: alkylaryl polyglycol ether
as §2
Discs of bean leaves (Phaseolus vulgaris) infested by all stages of the greenhouse red spider mite (Tetranychus urticae) are sprayed with an active ingredient formulation of the desired concentration.
After 6 days, efficacy in % is determined. 100% means that all the spider mites have been killed; 0% means that no spider mites have been killed.

Data set [2] relates to Ctenocephalides felis. The data set is described as follows: Ctenocephalides felis oral test (CTECFE). The settings on record: application rate 100 ppm in citrated cattle blood; after 2 days. In kind it is in vivo. Here is the method: Ctenocephalides felis—Oral Test (CTECFE) Solvent: dimethyl sulphoxide
To produce a suitable preparation of active compound, 10 mg of active compound are mixed with 0.5 ml of dimethyl sulphoxide. Dilution with citrated cattle blood gives the desired concentration.
About 20 unfed adult cat fleas (Ctenocephalides felis) are placed into a chamber which is closed at the top and bottom with gauze. A metal cylinder whose bottom end is closed with parafilm is placed onto the chamber. The cylinder contains the blood/active compound preparation, which can be imbibed by the fleas through the parafilm membrane.
After 2 days, the kill in % is determined. 100% means that all of the fleas have been killed; 0% means that none of the fleas have been killed.

The subject of a further data set is Amblyomma hebraeum. The data set is described as follows: Amblyomma hebaraeum test (AMBYHE), tick nymph immersion. The data set is classed as in vivo. Conditions: application rate 20 ppm; tick nymphs; after 42 days. Here is the method: Amblyomma hebaraeum Test (AMBYHE) Solvent: dimethyl sulphoxide
as §3
Tick nymphs (Amblyomma hebraeum) are placed into perforated plastic beakers and immersed in the desired concentration for one minute. The ticks are transferred on filter paper into a Petri dish and stored in a climate-controlled cabinet.
After 42 days, the kill in % is determined. 100% means that all of the ticks have been killed; 0% means that none of the ticks have been killed.

Data set [3] relates to Boophilus microplus Parkhurst strain, SP-resistant. The data set is described as follows: Boophilus microplus dip test (BOOPMI Dip). In kind it is in vivo. The settings on record: application rate 20 ppm; engorged adult female cattle ticks; after 7 days. Here is the method:
Boophilus microplus—Dip Test (BOOPMI Dip) Test animals: cattle ticks (Boophilus microplus) Parkhurst strain, SP-resistant Solvent: dimethyl sulphoxide
10 mg of active compound are dissolved in 0.5 ml of dimethyl sulphoxide. To produce a suitable formulation, the active compound solution is diluted with water to the concentration desired in each case.
This active compound preparation is pipetted into tubes. 8-10 engorged adult female cattle ticks (Boophilus microplus) are transferred into a further tube with holes. The tube is immersed into the active compound preparation, and all the ticks are completely wetted. After the liquid has run out, the ticks are transferred on filter discs into plastic dishes and stored in a climate-controlled room.
Efficacy is assessed after 7 days by laying of fertile eggs. Eggs which are not visibly fertile are stored in a climate-controlled cabinet until the larvae hatch after about 42 days. An efficacy of 100% means that none of the ticks has laid any fertile eggs; 0% means that all the eggs are fertile.

Another data set relates to Spodoptera frugiperda. In words: Spodoptera frugiperda spray test (SPODFR). The data set is classed as in vivo. Conditions: application rate 100 g/ha; maize leaf discs; after 7 days. The protocol:
Spodoptera frugiperda—Spray Test (SPODFR)
Solvent: 78.0 parts by weight of acetone • • 1.5 parts by weight of dimethylformamide Emulsifier: alkylaryl polyglycol ether
as §2
Leaf discs of maize (Zea mays) are sprayed with an active compound preparation of the desired concentration and, after drying, populated with caterpillars of the armyworm (Spodoptera frugiperda).
After 7 days, efficacy in % is determined. 100% means that all the caterpillars have been killed; 0% means that no caterpillars have been killed.

For the next data set, the system named is Boophilus microplus. The data set is described as follows: Boophilus microplus injection test (BOOPMI Inj). In kind it is in vivo. Conditions: application rate 20 μg/animal; injection into abdomen. Here is the method: Boophilus microplus—Injection Test (BOOPMI Inj) Solvent: dimethyl sulphoxide
To produce a suitable preparation of active compound, 10 mg of active compound are mixed with 0.5 ml of solvent and the concentrate is diluted with solvent to the desired concentration.
1 μl of the active compound solution is injected into the abdomen of 5 engorged adult female cattle ticks (Boophilus microplus). The animals are transferred into dishes and kept in a climate-controlled room.
The activity is assessed after the desired time by laying of fertile eggs. Eggs which are not visibly fertile are stored in a climate-controlled cabinet until the larvae hatch after about 42 days. An efficacy of 100% means that none of the ticks has laid any fertile eggs; 0% means that all the eggs are fertile.

Another data set deals with Musca domestica. In words: Musca domestica test (MUSCDO). In kind it is in vivo. The settings on record: application rate 100 ppm; adult houseflies; after 2 days. Here is the method:
Musca domestica-Test (MUSCDO) Solvent: dimethyl sulphoxide
as §3
Vessels containing a sponge treated with sugar solution and the active compound preparation of the desired concentration are populated with 10 adult houseflies (Musca domestica).
After 2 days, the kill in % is determined. 100% means that all of the flies have been killed; 0% means that none of the flies have been killed.

Data set [4] is described as follows: log P by HPLC on reversed-phase column (C18), EEC Directive 79/831 Annex V.A8. The data set is classed as physicochemical. The settings on record: reversed-phase C18 HPLC column; HPLC, C18, acetonitrile/water with formic acid gradient; read-out: log P. Here is the method:
^a) Unless indicated otherwise, the following method was used to determine the log P values and masses: The determination of the given log P values was carried out in accordance with EEC Directive 79/831 Annex V.A8 by HPLC (High Performance Liquid Chromatography) on a reversed-phase column (C18). Agilent 1100 LC system; 50*4.6 Zorbax Eclipse Plus C18 1.8 micron; mobile phase A: acetonitrile (0.1% formic acid); mobile phase B: water (0.09% formic acid); linear gradient from 10% acetonitrile to 95% acetonitrile in 4.25 min, then 95% acetonitrile for a further 1.25 min; oven temperature 55° C.; flow rate: 2.0 ml/min. Mass detection is effected by means of an Agilend MSD system.

Regarding `Cn1nc(C(F)(F)C(F)(F)F)c(C(F)(F)F)c1-c1cn(-c2ccc(Cl)c(C(=O)NC3CC3)c2)nn1` [Ig-1, 2-chloro-N-cyclopropyl-5-{4-[1-methyl-3-(pentafluoroethyl)-4-(trifluoromethyl)-1H-pyrazol-5-yl]-1H-1,2,3-triazol-1-yl}benzamide], the efficacy in the data set on Ctenocephalides felis [1], in the data set with Phaedon cochleariae, in the data set on Rhipicephalus sanguineus, with Tetranychus urticae and in the data set with Spodoptera frugiperda was 100% throughout. Besides, the “efficacy (kill)” value in the data set with Lucilia cuprina, in the data set with Ctenocephalides felis [2], in the data set with Amblyomma hebraeum and in the data set with Musca domestica was 100% in each case. Besides, the “efficacy (laying of fertile eggs)” value (in [3]; with Boophilus microplus) was 100% each time. For the same compound, the chromatographic logP in [4] was determined as 3.67.
